Test results from paper PMC5218480 (PLoS ONE, 2017).

System: MV-4-11 cells
Experiment: Gene expression microarray analysis (Affymetrix PrimeView) and GSEA
Type: cell-based, human
Design: RFU PODN (11730768_x_at) / Fold change /veh PODN (11730768_x_at) / RFU LINC00158 (11744669_a_at) / Fold change /veh LINC00158 (11744669_a_at) / RFU DUSP10 (11751237_a_at) / Fold change /veh DUSP10 (11751237_a_at) / RFU ID3 (11757404_x_at) / Fold change /veh ID3 (11757404_x_at) / RFU PLEKHG5 (11737974_s_at) / Fold change /veh PLEKHG5 (11737974_s_at) / RFU LRRC4B (11730491_at) / Fold change /veh LRRC4B (11730491_at) / RFU GIMAP4 (11747438_a_at) / Fold change /veh GIMAP4 (11747438_a_at) / RFU KRT8 (11758183_x_at) / Fold change /veh KRT8 (11758183_x_at) / RFU CNN1 (11734310_a_at) / Fold change /veh CNN1 (11734310_a_at) / RFU VPS37D (11726825_at) / Fold change /veh VPS37D (11726825_at) / RFU C10orf10 (11716522_x_at) / Fold change /veh C10orf10 (11716522_x_at) / RFU KIR2DL2 /// KIR2DL4 /// KIR2DL5A /// KIR2DL5B /// KIR2DS1 /// KIR2DS2 /// KIR2DS3 /// KIR2DS4 /// KIR3DL3 /// KIR3DL3 /// KIR3DS1 (11738374_at) / Fold change /veh KIR2DL2 /// KIR2DL4 /// KIR2DL5A /// KIR2DL5B /// KIR2DS1 /// KIR2DS2 /// KIR2DS3 /// KIR2DS4 /// KIR3DL3 /// KIR3DL3 /// KIR3DS1 (11738374_at) / RFU C1QL1 (11718748_at) / Fold change /veh C1QL1 (11718748_at) / RFU TMPRSS4 (11747572_a_at) / Fold change /veh TMPRSS4 (11747572_a_at) / RFU HAMP (11756126_x_at) / Fold change /veh HAMP (11756126_x_at) / RFU RNFT2 (11725882_a_at) / Fold change /veh RNFT2 (11725882_a_at) / RFU NR4A2 (11747474_a_at) / Fold change /veh NR4A2 (11747474_a_at) / RFU ABCC12 (11746883_a_at) / Fold change /veh ABCC12 (11746883_a_at) / RFU TMEM136 (11760407_x_at) / Fold change /veh TMEM136 (11760407_x_at) / RFU CLDN22 /// WWC2 (11732394_at) / Fold change /veh CLDN22 /// WWC2 (11732394_at) / RFU HLA-DPB1 (11760878_x_at) / Fold change /veh HLA-DPB1 (11760878_x_at) / RFU SPINT1 (11716480_a_at) / Fold change /veh SPINT1 (11716480_a_at) / RFU GAP43 (11754022_s_at) / Fold change /veh GAP43 (11754022_s_at) / RFU A4GNT (11735810_at) / Fold change /veh A4GNT (11735810_at) / RFU PRB3 (11715151_x_at) / Fold change /veh PRB3 (11715151_x_at) / RFU TUBB4B (11761932_at) / Fold change /veh TUBB4B (11761932_at) / RFU CAPN14 (11732068_a_at) / Fold change /veh CAPN14 (11732068_a_at) / RFU TMCC2 (11721928_a_at) / Fold change /veh TMCC2 (11721928_a_at) / RFU IRGQ (11745062_a_at) / Fold change /veh IRGQ (11745062_a_at) / RFU FAM174B (11720279_a_at) / Fold change /veh FAM174B (11720279_a_at) / RFU TMPRSS4 (11748680_a_at) / Fold change /veh TMPRSS4 (11748680_a_at) / RFU FAM212B (11763350_a_at) / Fold change /veh FAM212B (11763350_a_at) / RFU PLEKHG5 (11743358_a_at) / Fold change /veh PLEKHG5 (11743358_a_at) / RFU ZSCAN30 (11745921_a_at) / Fold change /veh ZSCAN30 (11745921_a_at) / RFU CMKLR1 (11741424_a_at) / Fold change /veh CMKLR1 (11741424_a_at) / RFU LOC101060620 /// MAPK8IP1 (11723275_at) / Fold change /veh LOC101060620 /// MAPK8IP1 (11723275_at) / RFU SPTSSB (11747773_x_at) / Fold change /veh SPTSSB (11747773_x_at) / RFU PRSS12 (11739890_at) / Fold change /veh PRSS12 (11739890_at) / RFU BIN1 (11741810_x_at) / Fold change /veh BIN1 (11741810_x_at) / RFU WNT11 (11732464_a_at) / Fold change /veh WNT11 (11732464_a_at) / RFU C10orf10 (11716521_a_at) / Fold change /veh C10orf10 (11716521_a_at) / RFU C5orf56 (11738089_at) / Fold change /veh C5orf56 (11738089_at) / RFU CYB561 (11721691_x_at) / Fold change /veh CYB561 (11721691_x_at) / RFU ANKRD19P (11752326_a_at) / Fold change /veh ANKRD19P (11752326_a_at) / RFU OR2T12 /// OR2T33 /// OR2T8 (11738714_s_at) / Fold change /veh OR2T12 /// OR2T33 /// OR2T8 (11738714_s_at) / RFU VCAN (11748164_a_at) / Fold change /veh VCAN (11748164_a_at) / RFU JSRP1 (11732532_at) / Fold change /veh JSRP1 (11732532_at) / RFU KRTAP10-11 (11738290_x_at) / Fold change /veh KRTAP10-11 (11738290_x_at) / RFU MYO3A (11730013_a_at) / Fold change /veh MYO3A (11730013_a_at) / RFU EBF3 (11725865_a_at) / Fold change /veh EBF3 (11725865_a_at) / RFU CAMK2N1 (11719241_x_at) / Fold change /veh CAMK2N1 (11719241_x_at) / RFU C5orf56 (11738088_a_at) / Fold change /veh C5orf56 (11738088_a_at) / RFU OLFML3 (11715873_a_at) / Fold change /veh OLFML3 (11715873_a_at) / RFU LOC100653217 /// NTM (11731650_a_at) / Fold change /veh LOC100653217 /// NTM (11731650_a_at) / RFU MAPK11 (11762145_a_at) / Fold change /veh MAPK11 (11762145_a_at) / RFU FIZ1 (11724087_x_at) / Fold change /veh FIZ1 (11724087_x_at) / RFU OASL (11726364_x_at) / Fold change /veh OASL (11726364_x_at) / RFU SOX15 (11748057_x_at) / Fold change /veh SOX15 (11748057_x_at) / RFU CD79A (11719716_a_at) / Fold change /veh CD79A (11719716_a_at) / RFU HIST1H1D (11736915_at) / Fold change /veh HIST1H1D (11736915_at) / RFU CASKIN2 (11723855_a_at) / Fold change /veh CASKIN2 (11723855_a_at) / RFU LOC730098 (11760151_x_at) / Fold change /veh LOC730098 (11760151_x_at) / RFU OR4N2 (11742367_at) / Fold change /veh OR4N2 (11742367_at) / RFU PRRT2 (11749266_a_at) / Fold change /veh PRRT2 (11749266_a_at) / RFU SNX32 (11753110_a_at) / Fold change /veh SNX32 (11753110_a_at) / RFU CDHR5 (11726645_a_at) / Fold change /veh CDHR5 (11726645_a_at) / RFU RCAN1 (11760418_a_at) / Fold change /veh RCAN1 (11760418_a_at) / RFU FAM167A (11723789_a_at) / Fold change /veh FAM167A (11723789_a_at) / RFU FAM26E (11764081_at) / Fold change /veh FAM26E (11764081_at) / RFU ISYNA1 (11749810_s_at) / Fold change /veh ISYNA1 (11749810_s_at) / RFU ACY1 (11761880_at) / Fold change /veh ACY1 (11761880_at) / RFU 11764098_at / Fold change /veh 11764098_at / RFU SAMD14 (11745864_x_at) / Fold change /veh SAMD14 (11745864_x_at) / RFU NPB (11741838_a_at) / Fold change /veh NPB (11741838_a_at) / RFU TMPRSS6 (11731388_a_at) / Fold change /veh TMPRSS6 (11731388_a_at) / RFU KRTAP10-2 (11738614_at) / Fold change /veh KRTAP10-2 (11738614_at) / RFU ARHGAP8 /// PRR5-ARHGAP8 (11727945_x_at) / Fold change /veh ARHGAP8 /// PRR5-ARHGAP8 (11727945_x_at) / RFU KRTAP5-7 /// NADSYN1 (11734609_at) / Fold change /veh KRTAP5-7 /// NADSYN1 (11734609_at) / RFU RASL12 (11751679_a_at) / Fold change /veh RASL12 (11751679_a_at) / RFU CDKN2B (11736163_a_at) / Fold change /veh CDKN2B (11736163_a_at) / RFU PRF1 (11729649_at) / Fold change /veh PRF1 (11729649_at) / RFU, ZNF638 /// ZNF638-IT1 / Fold change vs veh, ZNF638 /// ZNF638-IT1 / RFU, PANK3 / Fold change vs veh, PANK3 / RFU, SH3YL1 / Fold change vs veh, SH3YL1 / RFU, ZEB2 / Fold change vs veh, ZEB2 / RFU, NRIP1 / Fold change vs veh, NRIP1 / RFU, PTTG1IP / Fold change vs veh, PTTG1IP / RFU, CAPN2 / Fold change vs veh, CAPN2 / RFU, MED14 / Fold change vs veh, MED14 / RFU, SNORA58 / Fold change vs veh, SNORA58 / RFU, C1orf63 / Fold change vs veh, C1orf63 / RFU, LRRFIP1 / Fold change vs veh, LRRFIP1 / RFU, NDUFAF7 / Fold change vs veh, NDUFAF7 / RFU, SLC12A2 / Fold change vs veh, SLC12A2 / RFU, IBTK / Fold change vs veh, IBTK / RFU, ESF1 / Fold change vs veh, ESF1 / Fold change vs veh, TMEM50B / RFU, TAOK1 / Fold change vs veh, TAOK1 / RFU, ACBD3 / Fold change vs veh, ACBD3 / RFU, TMA16 / Fold change vs veh, TMA16 / RFU, RWDD3 / Fold change vs veh, RWDD3 / RFU, BCAT1 / Fold change vs veh, BCAT1 / RFU, EDEM3 / Fold change vs veh, EDEM3 / RFU, TMEM33 / Fold change vs veh, TMEM33 / RFU, WDR75 / Fold change vs veh, WDR75 / RFU, AHCTF1 / Fold change vs veh, AHCTF1 / RFU, TFRC / Fold change vs veh, TFRC / RFU, ZDHHC17 / Fold change vs veh, ZDHHC17 / RFU, NOM1 / Fold change vs veh, NOM1 / RFU, ARL8B / Fold change vs veh, ARL8B / RFU, ZBTB11 / Fold change vs veh, ZBTB11 / RFU, TAMM41 / Fold change vs veh, TAMM41 / RFU, KIAA1704 /// LOC100996395 / Fold change vs veh, KIAA1704 /// LOC100996395 / RFU, ING1 / Fold change vs veh, ING1 / RFU, TRMT61B / Fold change vs veh, TRMT61B / RFU, FUBP3 / Fold change vs veh, FUBP3 / RFU, TP53 / Fold change vs veh, TP53 / RFU, TNKS2 / Fold change vs veh, TNKS2 / RFU, ZFP14 / Fold change vs veh, ZFP14 / RFU, ACTR2 / Fold change vs veh, ACTR2 / RFU, PPP3R1 / Fold change vs veh, PPP3R1 / RFU, PIK3R1 / Fold change vs veh, PIK3R1 / RFU, HNRNPA1 / Fold change vs veh, HNRNPA1 / RFU, RNF170 / Fold change vs veh, RNF170 / RFU, ZNF28 / Fold change vs veh, ZNF28 / RFU, RNGTT / Fold change vs veh, RNGTT / RFU, OGT / Fold change vs veh, OGT / RFU, BRD1 / Fold change vs veh, BRD1 / RFU, MARS / Fold change vs veh, MARS / RFU, ZNF655 / Fold change vs veh, ZNF655 / RFU, FAHD1 / Fold change vs veh, FAHD1 / RFU, BDP1 / Fold change vs veh, BDP1 / RFU, LRRCC1 / Fold change vs veh, LRRCC1 / RFU, ARID1A / Fold change vs veh, ARID1A / RFU, ZNF146 / Fold change vs veh, ZNF146 / RFU, ZNF330 / Fold change vs veh, ZNF330 / RFU, GPN3 / Fold change vs veh, GPN3 / RFU, C9orf123 / Fold change vs veh, C9orf123 / RFU, N4BP2L2 / Fold change vs veh, N4BP2L2 / RFU, ARFIP1 / Fold change vs veh, ARFIP1 / RFU, FAM179B / Fold change vs veh, FAM179B / RFU, BCL10 / Fold change vs veh, BCL10 / RFU, UHRF1BP1L / Fold change vs veh, UHRF1BP1L / RFU, BET1 / Fold change vs veh, BET1 / RFU, CNOT2 / Fold change vs veh, CNOT2 / RFU, ZNF268 / Fold change vs veh, ZNF268 / Fold change vs veh, ZNF507 / RFU, DGCR2 / Fold change vs veh, DGCR2 / RFU, WDSUB1 / Fold change vs veh, WDSUB1 / Fold change vs veh, HSP90B1 /// MIR3652 / RFU, ADSS / Fold change vs veh, ADSS / RFU, GK / Fold change vs veh, GK / RFU, ZNF148 / Fold change vs veh, ZNF148 / RFU, TAF9 / Fold change vs veh, TAF9 / RFU, SLC1A5 / Fold change vs veh, SLC1A5 / RFU, SLMO2 / Fold change vs veh, SLMO2 / RFU, ABCC4 / Fold change vs veh, ABCC4 / RFU, LOC101060439 /// RAP1B / Fold change vs veh, LOC101060439 /// RAP1B / RFU, RFX7 / Fold change vs veh, RFX7 / RFU, GTPBP10 / Fold change vs veh, GTPBP10 / RFU, CNEP1R1 / Fold change vs veh, CNEP1R1 / RFU, BIVM-ERCC5 /// ERCC5 / Fold change vs veh, BIVM-ERCC5 /// ERCC5 / RFU, ILF3 / Fold change vs veh, ILF3 / RFU 11762660_at / Fold change /veh 11762660_at / RFU VCAN (11757783_s_at) / Fold change /veh VCAN (11757783_s_at) / RFU DDX43 (11728927_at) / Fold change /veh DDX43 (11728927_at) / RFU KRT8 (11758188_x_at) / Fold change /veh KRT8 (11758188_x_at) / RFU NKD1 (11759106_at) / Fold change /veh NKD1 (11759106_at) / RFU SRD5A1 (11742802_a_at) / Fold change /veh SRD5A1 (11742802_a_at) / RFU TPSAB1 /// TPSB2 (11721975_s_at) / Fold change /veh TPSAB1 /// TPSB2 (11721975_s_at) / RFU GSTM3 (11746129_a_at) / Fold change /veh GSTM3 (11746129_a_at) / RFU IL23R (11737362_x_at) / Fold change /veh IL23R (11737362_x_at) / RFU TMEM51 (11727254_a_at) / Fold change /veh TMEM51 (11727254_a_at) / RFU PIWIL2 (11732686_x_at) / Fold change /veh PIWIL2 (11732686_x_at) / RFU ORM1 (11744905_x_at) / Fold change /veh ORM1 (11744905_x_at) / RFU CCDC152 (11743942_at) / Fold change /veh CCDC152 (11743942_at) / RFU ECM1 (11717891_a_at) / Fold change /veh ECM1 (11717891_a_at) / RFU IL23R (11748794_a_at) / Fold change /veh IL23R (11748794_a_at) / RFU TNFAIP8L3 (11732012_x_at) / Fold change /veh TNFAIP8L3 (11732012_x_at) / RFU MBOAT4 (11741988_at) / Fold change /veh MBOAT4 (11741988_at) / RFU 11764193_at / Fold change /veh 11764193_at / RFU TMEM53 (11763286_at) / Fold change /veh TMEM53 (11763286_at) / RFU MAGEB2 (11727129_at) / Fold change /veh MAGEB2 (11727129_at) / RFU TMEM200A (11744735_a_at) / Fold change /veh TMEM200A (11744735_a_at) / RFU CCDC152 (11751479_a_at) / Fold change /veh CCDC152 (11751479_a_at) / RFU FAM211A (11726209_a_at) / Fold change /veh FAM211A (11726209_a_at) / RFU RGS16 (11746705_a_at) / Fold change /veh RGS16 (11746705_a_at) / RFU VCAN (11755009_s_at) / Fold change /veh VCAN (11755009_s_at) / RFU RHOB (11743442_s_at) / Fold change /veh RHOB (11743442_s_at) / RFU RGS16 (11720943_a_at) / Fold change /veh RGS16 (11720943_a_at) / RFU RGS16 (11720944_at) / Fold change /veh RGS16 (11720944_at) / RFU, VPS4B / Fold change vs veh, VPS4B / RFU, CREB1 / Fold change vs veh, CREB1 / RFU, DNAJC13 / Fold change vs veh, DNAJC13 / RFU, GNAQ / Fold change vs veh, GNAQ / RFU, CDK5R1 / Fold change vs veh, CDK5R1 / RFU, ZRANB3 / Fold change vs veh, ZRANB3 / RFU, CUL4A / Fold change vs veh, CUL4A / RFU, CCNY / Fold change vs veh, CCNY / RFU, UFL1 / Fold change vs veh, UFL1 / RFU, COG3 / Fold change vs veh, COG3 / RFU, DIAPH2 / Fold change vs veh, DIAPH2 / RFU, SKA2 / Fold change vs veh, SKA2 / RFU, AFF3 / Fold change vs veh, AFF3 / RFU, LMF1 / Fold change vs veh, LMF1 / RFU, IPO11 / Fold change vs veh, IPO11 / RFU, DFFB / Fold change vs veh, DFFB / RFU, FOXP1 / Fold change vs veh, FOXP1 / RFU, CARD8 / Fold change vs veh, CARD8 / RFU, STRN3 / Fold change vs veh, STRN3 / RFU, ADK / Fold change vs veh, ADK / RFU, RASSF2 / Fold change vs veh, RASSF2 / RFU, WIPF1 / Fold change vs veh, WIPF1 / RFU, LARP1B / Fold change vs veh, LARP1B / RFU, RASA1 / Fold change vs veh, RASA1 / RFU, RB1 / Fold change vs veh, RB1 / RFU, PPFIA1 / Fold change vs veh, PPFIA1 / RFU, MAT2A / Fold change vs veh, MAT2A / RFU, CCT5 / Fold change vs veh, CCT5 / RFU, WDR92 / Fold change vs veh, WDR92 / RFU, CUX1 / Fold change vs veh, CUX1 / RFU, TTC7A / Fold change vs veh, TTC7A / RFU, TMEM135 / Fold change vs veh, TMEM135 / RFU, DEPTOR / Fold change vs veh, DEPTOR / RFU, CPM / Fold change vs veh, CPM / RFU, DNAJB6 / Fold change vs veh, DNAJB6 / RFU, CACNA2D3 / Fold change vs veh, CACNA2D3 / RFU, DTX4 / Fold change vs veh, DTX4 / RFU, TFCP2 / Fold change vs veh, TFCP2 / RFU, GMCL1 /// GMCL1P1 / Fold change vs veh, GMCL1 /// GMCL1P1 / RFU, AEBP2 / Fold change vs veh, AEBP2 / RFU, SNHG1 /// SNORD22 /// SNORD25 /// SNORD26 /// SNORD27 /// SNORD28 /// SNORD29 /// SNORD31 / Fold change vs veh, SNHG1 /// SNORD22 /// SNORD25 /// SNORD26 /// SNORD27 /// SNORD28 /// SNORD29 /// SNORD31 / Fold change (Aza/veh), C12orf56 (ProbeSet 11735607_a_at) / Fold change (ACY-1035/veh), C12orf56 (ProbeSet 11735607_a_at) / Fold change (Aza/veh), FGFR1OP (ProbeSet 11751329_s_at) / Fold change (ACY-1035/veh), FGFR1OP (ProbeSet 11751329_s_at) / Fold change (Aza/veh), VPS36 (ProbeSet 11739960_a_at) / Fold change (ACY-1035/veh), VPS36 (ProbeSet 11739960_a_at) / RFU SYPL1 (11715823_x_at) / Fold change /veh SYPL1 (11715823_x_at) / RFU IGFBP7 (11715501_s_at) / Fold change /veh IGFBP7 (11715501_s_at) / RFU REEP3 (11722064_at) / Fold change /veh REEP3 (11722064_at) / RFU IGLL1 (11728026_x_at) / Fold change /veh IGLL1 (11728026_x_at): dose or concentration left out as unconfirmed
Settings: MV-4-11 cells, 48 hours

With Nc1ncn([C@@H]2O[C@H](CO)[C@@H](O)[C@H]2O)c(=O)n1 [azacitidine] the “Fold change /veh C1QL1 (11718748_at)” value was 0.93.
